Data on 17 molecules can be found in patent US12187742B2 (XRAD Therapeutics, Inc., priority 2018, dated 2025).

The target in one assay is ATM (Homo sapiens (Human), UniProt Q13315). Briefly: ATM in Cell Western Assay (pKAP1 in etoposide-treated MCF-7 cells). It counts as cell-based. The settings on record: MCF-7 cells, etoposide 100 μM, 1 hr, pKAP1 readout. The essentials:
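Cells received compounds in a 10-dose, 3-fold series from a 1 μM final top concentration, then 100 μM etoposide, for 1 hr at 37° C. They were then fixed with paraformaldehyde and permeabilized with 0.1% Triton X-100. After immunostaining, plates were scanned on an infrared imager.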

The target of a further assay is DNA-PK (Homo sapiens (Human), UniProt P78527). As to the kind of experiment: DNA-PK Enzyme-Linked Immunosorbent Assay (phosphorylation of GST-p53 (1-101) peptide). It counts as biochemical. The conditions noted are these: ELISA, ATP 20 μM. Summed up: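 ELISA with plate-bound GST-p53 (1-101) phosphorylated by DNA-PK (0.1 μg/mL final) with 20 μM ATP for 1 h at 25 °C. Compounds tested over 10 3-fold doses from 100 nM top final. Phospho-p53 Ser15 detected by antibody, HRP and TMB, absorbance at 450 nm.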

Structures can show the parent of a compound that is named as a salt.

Sequence of ATM (Q13315 whole entry): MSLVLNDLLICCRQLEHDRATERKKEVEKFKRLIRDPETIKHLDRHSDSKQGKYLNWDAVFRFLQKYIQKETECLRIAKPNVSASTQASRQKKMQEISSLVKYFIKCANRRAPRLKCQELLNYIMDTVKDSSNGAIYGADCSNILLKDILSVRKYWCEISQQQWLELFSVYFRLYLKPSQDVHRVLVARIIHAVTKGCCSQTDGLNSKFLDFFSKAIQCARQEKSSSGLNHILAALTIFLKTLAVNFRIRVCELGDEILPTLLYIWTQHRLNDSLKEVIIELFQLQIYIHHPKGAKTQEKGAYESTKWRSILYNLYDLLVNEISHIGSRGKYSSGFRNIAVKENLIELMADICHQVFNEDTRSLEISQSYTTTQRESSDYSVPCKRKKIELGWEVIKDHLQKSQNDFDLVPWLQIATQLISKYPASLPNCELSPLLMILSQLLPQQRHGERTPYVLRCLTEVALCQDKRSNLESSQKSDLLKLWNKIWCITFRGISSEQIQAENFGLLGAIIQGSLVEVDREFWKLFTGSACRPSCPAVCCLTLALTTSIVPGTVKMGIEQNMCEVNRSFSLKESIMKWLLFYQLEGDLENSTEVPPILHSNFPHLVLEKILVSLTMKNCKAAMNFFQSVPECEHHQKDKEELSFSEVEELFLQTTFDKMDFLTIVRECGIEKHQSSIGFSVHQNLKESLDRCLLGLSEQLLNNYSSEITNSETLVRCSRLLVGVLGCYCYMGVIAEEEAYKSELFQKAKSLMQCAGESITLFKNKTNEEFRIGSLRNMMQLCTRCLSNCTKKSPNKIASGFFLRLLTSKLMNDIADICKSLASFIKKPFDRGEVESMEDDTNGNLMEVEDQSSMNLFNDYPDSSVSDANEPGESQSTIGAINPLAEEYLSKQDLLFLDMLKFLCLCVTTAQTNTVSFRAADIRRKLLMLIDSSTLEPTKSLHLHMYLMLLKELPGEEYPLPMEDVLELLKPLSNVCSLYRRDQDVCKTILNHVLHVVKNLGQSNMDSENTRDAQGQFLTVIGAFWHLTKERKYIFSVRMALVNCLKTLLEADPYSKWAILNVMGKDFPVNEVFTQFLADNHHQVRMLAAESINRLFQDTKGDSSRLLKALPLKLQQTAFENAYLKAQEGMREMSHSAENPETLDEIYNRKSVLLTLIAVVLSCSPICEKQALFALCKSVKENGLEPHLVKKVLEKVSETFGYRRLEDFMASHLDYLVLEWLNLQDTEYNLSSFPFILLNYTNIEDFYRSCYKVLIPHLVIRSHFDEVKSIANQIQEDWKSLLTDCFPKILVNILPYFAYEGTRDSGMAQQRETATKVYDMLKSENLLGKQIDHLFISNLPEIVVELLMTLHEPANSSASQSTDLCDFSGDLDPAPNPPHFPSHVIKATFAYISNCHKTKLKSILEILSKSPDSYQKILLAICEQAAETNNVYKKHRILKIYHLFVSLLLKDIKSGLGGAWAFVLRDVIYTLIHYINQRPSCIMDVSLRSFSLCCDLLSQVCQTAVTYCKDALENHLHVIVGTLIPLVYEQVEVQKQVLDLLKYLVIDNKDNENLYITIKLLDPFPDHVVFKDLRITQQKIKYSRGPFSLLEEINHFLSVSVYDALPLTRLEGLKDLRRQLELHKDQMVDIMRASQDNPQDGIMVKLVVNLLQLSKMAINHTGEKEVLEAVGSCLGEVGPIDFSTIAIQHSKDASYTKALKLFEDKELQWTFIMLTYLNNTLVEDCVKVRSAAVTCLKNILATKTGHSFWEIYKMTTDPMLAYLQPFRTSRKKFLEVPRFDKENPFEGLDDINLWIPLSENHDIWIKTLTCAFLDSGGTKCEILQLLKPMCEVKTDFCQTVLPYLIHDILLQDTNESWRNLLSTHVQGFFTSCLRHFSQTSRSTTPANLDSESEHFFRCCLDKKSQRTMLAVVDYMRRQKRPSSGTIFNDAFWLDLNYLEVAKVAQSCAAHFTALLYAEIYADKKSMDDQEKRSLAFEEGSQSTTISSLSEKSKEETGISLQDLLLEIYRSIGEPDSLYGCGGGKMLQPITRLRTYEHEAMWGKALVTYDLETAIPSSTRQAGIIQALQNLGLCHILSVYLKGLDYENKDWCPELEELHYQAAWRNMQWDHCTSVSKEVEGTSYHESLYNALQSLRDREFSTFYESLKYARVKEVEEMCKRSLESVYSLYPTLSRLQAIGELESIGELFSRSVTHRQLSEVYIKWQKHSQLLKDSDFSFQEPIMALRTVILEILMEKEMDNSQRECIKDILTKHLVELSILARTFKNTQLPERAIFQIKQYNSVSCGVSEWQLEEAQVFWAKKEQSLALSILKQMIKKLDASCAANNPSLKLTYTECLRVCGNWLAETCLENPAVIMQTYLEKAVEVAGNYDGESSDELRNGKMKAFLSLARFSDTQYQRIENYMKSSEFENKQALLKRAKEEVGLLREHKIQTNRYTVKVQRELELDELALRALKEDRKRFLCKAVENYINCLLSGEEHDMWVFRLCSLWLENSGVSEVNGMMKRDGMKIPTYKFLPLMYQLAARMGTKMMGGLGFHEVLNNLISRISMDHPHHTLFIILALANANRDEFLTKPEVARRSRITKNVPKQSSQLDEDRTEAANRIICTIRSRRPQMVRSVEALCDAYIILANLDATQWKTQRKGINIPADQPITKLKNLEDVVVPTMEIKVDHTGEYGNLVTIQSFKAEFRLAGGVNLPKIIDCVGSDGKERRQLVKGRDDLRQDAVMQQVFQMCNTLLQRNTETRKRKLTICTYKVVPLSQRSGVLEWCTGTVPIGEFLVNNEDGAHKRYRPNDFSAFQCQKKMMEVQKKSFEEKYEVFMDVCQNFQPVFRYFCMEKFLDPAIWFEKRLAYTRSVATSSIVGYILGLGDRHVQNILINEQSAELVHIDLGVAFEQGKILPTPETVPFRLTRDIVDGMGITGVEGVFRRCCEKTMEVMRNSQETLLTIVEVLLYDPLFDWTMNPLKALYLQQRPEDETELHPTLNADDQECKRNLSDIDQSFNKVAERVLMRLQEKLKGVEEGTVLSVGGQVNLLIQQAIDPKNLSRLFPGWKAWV

On to `CN(C)CCCOc1ncc(-c2ccc3ncc4c(c3c2)C2(CCC2)C(=O)N4C)cc1NS(=O)(=O)CCN` [Example 223, 2-Amino-N-(2-(3-(dimethylamino)propoxy)-5-(3′-methyl-2′-oxo-2′,3′-dihydrospiro[cyclobutane-1,1′-pyrrolo[2,3-c]quinolin]-8′-yl)pyridin-3-yl)ethane-1-sulfonamide], for which the IC50 at ATM is 1 to 100 nM; against DNA-PK it was less than 0.5 nM.
Consider `CN1C(=O)C2(CCC2)c2c1cnc1ccc(-c3cnc(N4CCC(N(C)C)CC4)c(NS(C)(=O)=O)c3)cc21` [Example 224, N-(2-(4-(Dimethylamino)piperidin-1-yl)-5-(3′-methyl-2′-oxo-2′,3′-dihydrospiro[cyclobutane-1,1′-pyrrolo[2,3-c]quinolin]-8′-yl)pyridin-3-yl)methanesulfonamide], for which the IC50 was 1 to 100 nM at ATM and less than 0.5 nM at DNA-PK.
`CN1C(=O)C2(CCC2)c2c1cnc1ccc(-c3cnc(OCCCN4CCCCC4)c(NS(C)(=O)=O)c3)cc21` [Example 225, N-(5-(3′-Methyl-2′-oxo-2′,3′-dihydrospiro[cyclobutane-1,1′-pyrrolo[2,3-c]quinolin]-8′-yl)-2-(3-(piperidin-1-yl)propoxy)pyridin-3-yl)methanesulfonamide]: the IC50 at ATM was 1 to 100 nM; against DNA-PK, less than 0.5 nM.
In the same order, the values of `CN1C(=O)C2(CCC2)c2c1cnc1ccc(-c3cnc(N4CCC(N(C)C)CC4)c(NS(=O)(=O)N(C)C)c3)cc21` [Example 226, 8′-{6-[4-(Dimethylamino)piperidin-1-yl]-5-[(dimethylsulfamoyl)amino]pyridin-3-yl}-3′-methyl-2′,3′-dihydrospiro[cyclobutane-1,1′-pyrrolo[2,3-c]quinoline]-2′-one] are 0.5 to 1 nM and less than 0.5 nM.
As for `CN1CCN(c2ncc(-c3ccc4ncc5c(c4c3)C3(CCC3)C(=O)N5C)cc2NS(=O)(=O)C2CC2)CC1` [Example 227, N-(5-(3′-Methyl-2′-oxo-2′,3′-dihydrospiro[cyclobutane-1,1′-pyrrolo[2,3-c]quinolin]-8′-yl)-2-(4-methylpiperazin-1-yl)pyridin-3-yl)cyclopropanesulfonamide hydrochloride], the figures for the IC50 against ATM and against DNA-PK were 0.5 to 1 nM and less than 0.5 nM, respectively.
On to `CN1C(=O)C2(CCC2)c2c1cnc1ccc(-c3cnc(N4CCC(N5CCCCC5)CC4)c(NS(C)(=O)=O)c3)cc21` [Example 228, N-(2-([1,4′-Bipiperidin]-1′-yl)-5-(3′-methyl-2′-oxo-2′,3′-dihydrospiro[cyclobutane-1,1′-pyrrolo[2,3-c]quinolin]-8′-yl)pyridin-3-yl)methanesulfonamide], for which the IC50 against ATM was 0.5 to 1 nM; at DNA-PK it was less than 0.5 nM.
In the same order, the values of `CN1CCN(c2ncc(-c3ccc4ncc5c(c4c3)C3(CCC3)C(=O)N5C)cc2NS(C)(=O)=O)CC1` [Example 229, N-(5-(3′-Methyl-2′-oxo-2′,3′-dihydrospiro[cyclobutane-1,1′-pyrrolo[2,3-c]quinolin]-8′-yl)-2-(4-methylpiperazin-1-yl)pyridin-3-yl)methanesulfonamide] are 0.5 to 1 nM and less than 0.5 nM.
In the same order, the values of `CN1CCN(c2ncc(-c3ccc4ncc5c(c4c3)C3(CCC3)C(=O)N5C)cc2NS(=O)(=O)N(C)C)CC1` [Example 230, 8′-{5-[(Dimethylsulfamoyl)amino]-6-(4-methylpiperazin-1-yl)pyridin-3-yl}-3′-methyl-2′,3′-dihydrospiro[cyclobutane-1,1′-pyrrolo[2,3-c]quinoline]-2′-one] are 1 to 100 nM and less than 0.5 nM.
For `CN1C(=O)C2(CCC2)c2c1cnc1ccc(-c3cnc(OCCCN4CCCC4)c(NS(=O)(=O)c4ccccc4)c3)cc21` [Example 232, N-(5-(3′-Methyl-2′-oxo-2′,3′-dihydrospiro[cyclobutane-1,1′-pyrrolo[2,3-c]quinolin]-8′-yl)-2-(3-(pyrrolidin-1-yl)propoxy)pyridin-3-yl)benzenesulfonamide], the IC50 at ATM was in the range of 1 to 100 nM; on DNA-PK, 0.5 to 1 nM.
Take `Cc1cc(S(=O)(=O)Nc2cc(-c3ccc4ncc5c(c4c3)C3(CCC3)C(=O)N5C)cnc2N2CCC(N(C)C)CC2)sn1` [Example 233, N-(2-(4-(Dimethylamino)piperidin-1-yl)-5-(3′-methyl-2′-oxo-2′,3′-dihydrospiro[cyclobutane-1,1′-pyrrolo[2,3-c]quinolin]-8′-yl)pyridin-3-yl)-3-methylisothiazole-5-sulfonamide]: the values for the IC50 at ATM and on DNA-PK were 1 to 100 nM and 0.5 to 1 nM, respectively.
With `CN1C(=O)C2(CCC2)c2c1cnc1ccc(-c3cnc(OCCCN4CCCC4)c(NS(=O)(=O)C4CC4)c3)cc21` [Example 235, N-(5-(3′-Methyl-2′-oxo-2′,3′-dihydrospiro[cyclobutane-1,1′-pyrrolo[2,3-c]quinolin]-8′-yl)-2-(3-(pyrrolidin-1-yl)propoxy)pyridin-3-yl)cyclopropanesulfonamide], the IC50 against ATM and at DNA-PK was 1 to 100 nM each time.
For `CN1C(=O)C2(CCC2)c2c1cnc1ccc(-c3cnc(OCCCN4CCCC4)c(NS(C)(=O)=O)c3)cc21` [Example 236, N-(5-(3′-Methyl-2′-oxo-2′,3′-dihydrospiro[cyclobutane-1,1′-pyrrolo[2,3-c]quinolin]-8′-yl)-2-(3-(pyrrolidin-1-yl)propoxy)pyridin-3-yl)methanesulfonamide], the 50% inhibitory concentration (IC50) on ATM is 1 to 100 nM; on DNA-PK it was 0.5 to 1 nM.
On to `CN(C)CCCOc1ncc(-c2ccc3ncc4c(c3c2)C2(CCC2)C(=O)N4)cc1NS(C)(=O)=O` [Example 237, N-(2-(3-(Dimethylamino)propoxy)-5-(2′-oxo-2′,3′-dihydrospiro [cyclobutane-1,1′-pyrrolo[2,3-c]quinolin]-8′-yl)pyridin-3-yl)methanesulfonamide], for which the IC50 against ATM and against DNA-PK was 1 to 100 nM in each case.
As for `CCS(=O)(=O)Nc1cc(-c2ccc3ncc4c(c3c2)C2(CCC2)C(=O)N4C)cnc1OCCCN(C)C` [Example 238, N-(2-(3-(Dimethylamino)propoxy)-5-(3′-methyl-2′-oxo-2′,3′-dihydrospiro [cyclobutane-1,1′-pyrrolo[2,3-c]quinolin]-8′-yl)pyridin-3-yl) ethanesulfonamide], the IC50 against ATM and against DNA-PK was 1 to 100 nM in each case.
Consider `CN(C)CCCOc1ncc(-c2ccc3ncc4c(c3c2)C2(CCC2)C(=O)N4C)cc1NS(=O)(=O)C(F)(F)F` [Example 239, N-(2-(3-(Dimethylamino)propoxy)-5-(3′-methyl-2′-oxo-2′,3′-dihydrospiro [cyclobutane-1,1′-pyrrolo[2,3-c]quinolin]-8′-yl)pyridin-3-yl)-1,1,1-trifluoromethane-sulfonamide], for which the IC50 against ATM is 1 to 100 nM; against DNA-PK, less than 0.5 nM.
For `CNCCCOc1ncc(-c2ccc3ncc4c(c3c2)C2(CCC2)C(=O)N4C)cc1NS(C)(=O)=O` [Example 240, N-(5-(3′-Methyl-2′-oxo-2′,3′-dihydrospiro[cyclobutane-1,1′-pyrrolo[2,3-c]quinolin]-8′-yl)-2-(3-(methylamino)propoxy)pyridin-3-yl) methanesulfonamide formate], the IC50 against ATM is 1 to 100 nM; at DNA-PK, less than 0.5 nM.
Consider `CCCS(=O)(=O)Nc1cc(-c2ccc3ncc4c(c3c2)C2(CCC2)C(=O)N4C)cnc1OCCCN(C)C` [Example 241, N-(2-(3-(Dimethylamino)propoxy)-5-(3′-methyl-2′-oxo-2′,3′-dihydrospiro [cyclobutane-1,1′-pyrrolo[2,3-c]quinolin]-8′-yl)pyridin-3-yl)propane-1-sulfonamide], for which the IC50 against ATM and against DNA-PK was 1 to 100 nM each time.

Broadly, the IC50 is the concentration that inhibits the measured activity by half. Read a low IC50 as higher potency.
